US5429766A, “Detergent composition containing alkaline pullylanase enzyme” (Kao Corporation, priority 1990, dated 1995)

Legend:
Assay type in all cases: biochemical
[1] = tested on: alkaline pullulanase B (having α-amylase activity) from Bacillus sp. KSM-AP 1378 (FERM BP-3048), pullulanase activity; assay: Effects of chelating agents on pullulanase activity of alkaline pullulanase B; conditions: for Effect of chelating agent on pullulanase activity: chelating agent 10 mM; for Residual activity (%), Pullulanase activity: compound 10 mM, no addition = 100
Description: (§1) 0.1 ml of enzyme solution was added to 0.9 ml of a substrate solution consisting of a buffer solution and pullulan (final concentration in the reaction system was 0.25%), and the mixture was reacted at 40° C. for 30 minutes. After the reaction, reducing sugar was quantitatively determined by a method of the 3,5-dinitrosalicylic acid (DNS).
(§2) Specifically, 1.0 ml of DNS reagent was added to 1.0 ml of reaction mixture, and the mixture was heated at 100° C. for 5 minutes to develop color. After cooling, the mixture was diluted by adding 4.0 ml of deionized water. This solution was subjected to colorimetric quantitative analysis at a wave length of 535 nm. One unit (1U) of enzyme activity was defined as the amount of enzyme which released 1 μmol of reducing sugar (as glucose) per minute.
Same procedures were followed as mentioned in the section of alkaline pullulanase A.
The α-amylase activity which had been adversely affected by chelating agents can be restored by the addition of Ca^2+ ions as shown in Table 3.

[2] = tested on: alkaline pullulanase A from Bacillus sp. KSM-AP 1876 (FERM BP-3049); assay: Effects of chelating agents on pullulanase activity of alkaline pullulanase A; conditions: substrate pullulan
Description: as §1, §2

[3] = tested on: alkaline pullulanase B (having α-amylase activity) from Bacillus sp. KSM-AP 1378 (FERM BP-3048), α-amylase activity; assay: Effects of chelating agents on α-amylase activity of alkaline pullulanase B
Description: as §2, with “0.1 ml of enzyme solution was added to 0.9 ml of a substrate solution consisting of a buffer solution and soluble starch (final concentration in the reaction system was 0.25%), and the mixture was reacted at 50° C. for 15 minutes. After the reaction, reducing sugar was quantitatively determined by means of a DNS method. Specifically,” for “Specifically,”, “at” for “at a”

SMILES	Effect of chelating agent on pullulanase activity [1]	Residual activity (%), Pullulanase activity [1] [%]	Effect of chelating agent on pullulanase activity ([2]; chelating agent 10 mM)	Effect of chelating agent on α-amylase activity ([3]; chelating agent 10 mM, restored by addition of Ca2+ ions)	Residual activity (%), α-Amylase activity, when Ca2+ ions were added again ([3]; compound 10 mM, then Ca2+ ions added again (values in parentheses)) [%]	Residual activity (%), α-Amylase activity ([3]; compound 10 mM, no addition = 100) [%]	Effect of chelating agent on pullulanase activity ([2]; chelating agent 0.05% by weight)
O=C(O)CN(CCN(CC(=O)O)CC(=O)O)CC(=O)O [EDTA]	almost no adverse effect	77	almost no adverse effects	–	–	–	–
O=C(O)CN(CCOCCOCCN(CC(=O)O)CC(=O)O)CC(=O)O [EGTA]	almost no adverse effect	65	almost no adverse effects	adversely affected significantly	91	18	–
O=C(O)CC(O)(CC(=O)O)C(=O)O [citric acid]	–	–	–	–	–	–	almost no adverse effects
